Measurements reported in US11717508B2, “Compounds, compositions, and methods for inhibiting bacterial growth” (priority 2016, dated 2023).
“Also recorded” adds a separate entry of the source. Like-named read-outs stand apart in the source and are kept apart here.

Experiments:
Mtb = assay: microbe, parasite or virus in culture; format: cell-based; details: Mycobacterium tuberculosis, read-out: growth inhibition EC50
[1] = system: DosR regulon genes (dosR, hspX and tgs1); assay: NO and vitamin C sensitivity assays (RT-PCR); format: cell-based, Mycobacterium tuberculosis
DosS [2] = molecular target: T1, DosS (Mycobacterium tuberculosis, UniProt P9WGK3); format: biochemical
T1 sequence (P9WGK3 whole entry): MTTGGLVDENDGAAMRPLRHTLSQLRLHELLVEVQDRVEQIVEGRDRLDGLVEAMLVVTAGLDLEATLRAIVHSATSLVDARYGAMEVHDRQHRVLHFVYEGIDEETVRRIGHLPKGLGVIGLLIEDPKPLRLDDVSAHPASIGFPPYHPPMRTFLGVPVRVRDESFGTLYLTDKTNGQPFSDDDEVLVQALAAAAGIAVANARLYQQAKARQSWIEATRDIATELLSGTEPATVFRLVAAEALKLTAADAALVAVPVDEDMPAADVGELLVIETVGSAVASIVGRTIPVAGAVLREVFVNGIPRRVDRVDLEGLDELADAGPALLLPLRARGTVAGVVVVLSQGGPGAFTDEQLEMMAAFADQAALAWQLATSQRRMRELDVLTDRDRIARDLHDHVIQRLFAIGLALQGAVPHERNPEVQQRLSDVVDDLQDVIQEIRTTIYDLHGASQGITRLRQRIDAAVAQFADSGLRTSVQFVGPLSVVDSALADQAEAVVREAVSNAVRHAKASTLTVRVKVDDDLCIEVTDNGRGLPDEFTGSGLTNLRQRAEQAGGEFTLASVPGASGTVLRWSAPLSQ

Mtb CDC1551 = assay: microbe, parasite or virus in culture; details: Mycobacterium tuberculosis, CDC1551, read-out: reduction of viability relative to DMSO treated control
DosS [3] = molecular target: T1, DosS; assay: DosS autophosphorylation assay; format: biochemical
DosT = DosT (Mycobacterium tuberculosis, UniProt P9WGK1); assay: DosT autophosphorylation assay; format: biochemical
Chain of DosT (P9WGK1 whole entry): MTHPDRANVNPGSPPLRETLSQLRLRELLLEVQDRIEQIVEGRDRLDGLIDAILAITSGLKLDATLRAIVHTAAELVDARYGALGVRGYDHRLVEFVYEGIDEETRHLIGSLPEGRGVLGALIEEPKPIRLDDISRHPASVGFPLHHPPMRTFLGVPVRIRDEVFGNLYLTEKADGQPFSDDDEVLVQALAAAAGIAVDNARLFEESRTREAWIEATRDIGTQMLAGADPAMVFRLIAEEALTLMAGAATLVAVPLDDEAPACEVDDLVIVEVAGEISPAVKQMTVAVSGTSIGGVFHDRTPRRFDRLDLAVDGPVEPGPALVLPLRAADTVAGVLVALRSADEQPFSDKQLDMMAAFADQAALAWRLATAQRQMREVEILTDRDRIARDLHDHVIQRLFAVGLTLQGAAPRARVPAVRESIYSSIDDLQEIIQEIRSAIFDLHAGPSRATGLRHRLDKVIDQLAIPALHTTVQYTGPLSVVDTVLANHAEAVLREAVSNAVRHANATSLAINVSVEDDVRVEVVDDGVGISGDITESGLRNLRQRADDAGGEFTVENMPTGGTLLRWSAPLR

Mtb Erdman = details: ERDMAN, 360 h
[4] = system: CDC1551(hspX′:GFP) reporter; assay: microbe, parasite or virus in culture; format: cell-based, Mycobacterium tuberculosis; details: for EC50: Mycobacterium tuberculosis, read-out: EC50 of inhibition of CDC1551(hspX′:GFP) reporter (dosR-dependent GFP) fluorescence
DosS [5] = molecular target: T1, DosS; assay: LC-MS analysis of DosS reaction samples for heme-artemisinin adducts; format: biochemical; details: DosS treated with artemisinin vs DMSO
[6] = system: DosR regulon genes (dosR, hspX and tgs1); assay: RT-PCR of DosR regulon genes under hypoxia; format: cell-based, Mycobacterium tuberculosis; details: 6 days

## O=C(Nc1cccc(O)c1)c1cccc(NC(=O)c2cccs2)c1 [HC103A, N-[3-[(3 hydroxyphenyl)carbamoyl]phenyl]thiophene-2-carboxamide]
Mtb; […]
  EC50: > 80 µM
[1]
  inhibition of induction of DosR regulon (dosR, hspX, tgs1) by NO and vitamin C: strongly inhibited the induction; also recorded: inhibited the induction of DosR regulon
  repression of tgs1 transcript following treatment with DETA-NONOate: 50 fold
  repression of tgs1 transcript in vitamin C treated cells: 3 fold
DosS [2]
  effect on redox status of DosS heme: no impact on the redox status; also recorded: no effect in modulating redox status of DosS
Mtb CDC1551
  inhibition at 10 µM: ~50%
DosS [3]
  IC50: 0.5 µM
  maximal inhibition of DosS autophosphorylation: ~90%
DosT
  IC50: ~5 µM
Mtb Erdman
  reduction of Mtb viability when treated with 5 μM INH: ~50%
[4]
  activity of compound regenerated by organic synthesis: confirmed to have the activity of the commercially sourced compounds
[4]; […]
  EC50: 2.7 µM

## C[C@@H]1CC[C@H]2[C@@H](C)C(=O)O[C@@H]3O[C@]4(C)CC[C@@H]1[C@]32OO4 [HC101A, artemisinin, reference compound]
DosS [5]
  formation of heme-artemisinin adducts (LC-MS): alkylates the sensor kinase heme to form heme-artemisinin adducts
Mtb CDC1551
  inhibition at 10 µM: ~50%
[6]
  inhibition of dosRS (real-time PCR): 37 fold
  inhibition of hspX (real-time PCR): 51 fold
  inhibition of tgs1 (real-time PCR): 166 fold

## C[C@@H]1CC(C)(C)C[C@]2(C1)NC(=O)NC2=O (racemic) [HC102A, 7,7,9-trimethyl-1,3-diazaspiro[4.5]decane-2,4-dione]
Mtb; 6 days, optical density, unit given as M
  EC50: > 80 µM
[1]; 80 μM pretreatment 24 h, 50 μM DETA-NONOate 2 h
  repression of tgs1 transcript following treatment with DETA-NONOate: 3 fold
[1]; 80 μM pretreatment 24 h, 2 mM vitamin C 2 h
  repression of tgs1 transcript in vitamin C treated cells: 2 fold
[1]; pretreatment 24 h, induction 2 h
  inhibition of induction of DosR regulon (dosR, hspX, tgs1) by NO and vitamin C: strongly inhibited the induction; also recorded: inhibited the induction of DosR regulon
DosS [2]; UV-visible spectra vs DMSO control
  effect on redox status of DosS heme: no impact on the redox status; also recorded: no effect in modulating redox status of DosS
Mtb CDC1551
  inhibition at 10 µM: ~50%
DosS [3]; 1 hour incubation, read-out: IC50 of inhibition of DosS autophosphorylation
  IC50: 1.9 µM
DosS [3]; dose response
  maximal inhibition of DosS autophosphorylation: ~60%
DosT; dose response, 1 hour
  impact on DosT autophosphorylation: limited impact
[4]
  activity of compound regenerated by organic synthesis: confirmed to have the activity of the commercially sourced compounds
[4]; 6 days of treatment
  EC50: 12.4 µM
